Tests used:
MIN6 cell = assay: Glucose-stimulated insulin secretion (GSIS) assay, insulin by ELISA; assay type: cell-based, mouse
Procedure: In order to examine the influences of the aforementioned extracts and compounds from Antrodia camphorata for insulin secretion, GSIS assay was performed with MIN6 cell. First, MIN6 cell was incubated in 1×10^5/ml concentration in a 24-well plate and a 15% FBS DMEM medium at 37° C., 5% CO2. After cell attachment, 200 mg/1 BSA medium and the extracts and compounds from Antrodia camphorata in different concentrations were added into each well to react for 24 hours. 5.5 mM/16.7 mM glucose was further added as stimulation and then insulin was determined by ELISA. In the same time, total cellular protein in each well was extracted for a calibration by determining protein concentration with BCA assay.

[1] = test system: MIN6 mouse beta insulinoma cell line; assay: MTT cell viability assay with thapsigargin (TG) challenge; assay type: cell-based; conditions: then TG
Procedure: MIN6 mouse beta insulinoma cell line was analyzed by MTT cell viability assay respectively. The MIN6 mouse insulinoma beta cell line is an insulinoma cell line which comes from sarcoma virus 40 transfecting non-obese diabetic mice (NOD mice) by T cells, and is a mouse insulinoma cell line having physiological characteristics of insulinoma beta cell.
MIN6 cell line was cultured in a high glucose DMEM with 15% fetal bovine serum, 50 μmol/L mercaptoethanol, 100 U/ml penicillin, and […] streptomycin. The medium was replaced the next day.
MIN6 cells were prepared for 1×10^5/ml cell liquid suspensions, and then the suspensions were incubated in a 96-well plate with 100 μl in each well. After cell attachment, the medium was replaced with a 0.2% serum medium and then the cells were cultured for 24 hours in order to keep the cells at rest. Then, 200 mg/L BSA medium and the extracts/compounds from Antrodia camphorata with a variety of predetermined concentrations (experimental groups) were added to react for 24 hours, respectively, and then thapsigargin was added to react for 24 hours. A control group was prepared by adding 100 μl medium and then incubating in a constant temperature incubator at 37° C., 5% CO2 for a period of time. 4 hours before the end of the incubating process, 20 μl MTT (0.5 mg/ml) was added into each well, the samples continued being incubated for 4 hours, and then crystalline dissolved fully with vibration. The absorbance (A) at wavelength of 570 nm was determined respectively by a reader. Then the cell viability was calculated by the following formula: the cell viability=(the average of A570 in the experimental group/the average of A570 in the control group)×100%.
Referring to FIG. 1A, the extraction from ANCA-D in different concentrations (6.25, 12.5, 25, 50, 100 ng/ml) was added into cells in each group respectively to react for 24 hours. Then, thapsigargin (TG) was added to react for 24 hours and the cell viability of each group was determined after the reaction. Thapsigargin is an endoplasmic reticulum calcium pump inhibitor which can promote depletion of calcium ions from the endoplasmic reticulum and then open store-operated channels to lead the calcium ions to increase in cells. Then, insulin secretion could be inhibited.

In the case of `COC1=C(OC)[C@H](O)[C@H](C/C=C(\C)CC/C=C(\C)CC(O)C=C(C)C)[C@@H](C)C1=O` (stereo partly shown) [Antrocamol LT1, 4-hydroxy-5-[9-hydroxy-3,7,11-trimethyldodeca-2,6,10-trienyl]-2,3-dimethoxy-6-methyl-cyclohex-2-enone], the “insulin secretion relative to control group” value (MIN6 cell; pretreated with 500 ng/ml, higher glucose concentration 16.7 mM, FIG. 3C) is reported as “about 2 times”, the insulin secretion (MIN6 cell; pretreated with 500 ng/ml, lower glucose concentration 5.5 mM, FIG. 3C) is reported as “slightly increased” and the insulin secretion (MIN6 cell; pretreated with 1000 ng/ml and 500 ng/ml, 5.5 mM/16.7 mM glucose, FIG. 3B) is reported as “slightly increasing tendency”. For the same compound, the insulin secretion (MIN6 cell; pretreated with 1000 ng/ml, higher glucose concentration 16.7 mM, FIG. 3C) was “more obvious”, the insulin secretion (MIN6 cell; pretreated with 1000 ng/ml, lower glucose concentration 5.5 mM, FIG. 3C) was “increasing tendency” and the MIN6 cell viability ([1]; concentrations of 250, 500, and 1000 ng/ml, compared with only-TG control, FIG. 2A) was “increasing tendency was more significant”. For the same compound, the MIN6 cell viability ([1]; pretreated with compound, compared with only-TG control, overall, FIG. 2A) was “could increase the MIN6 cell viability”.
With `COC1=C(OC)[C@H](OC(C)=O)[C@H](C/C=C(\C)CC/C=C(\C)CC(O)C=C(C)C)[C@@H](C)C1=O` (stereo partly shown) [Antrocamol LT2, 4-acetoxy-5-[9-hydroxy-3,7,11-trimethyldodeca-2,6,10-trienyl]-2,3-dimethoxy-6-methyl-cyclohex-2-enone] the “effect of promoting insulin secretion” value (MIN6 cell; pretreated with 50 ng/ml, FIG. 3B) was “not observed”, the “insulin secretion relative to control group” value (MIN6 cell; pretreated with 100 ng/ml, 5.5 mM/16.7 mM glucose, FIG. 3B) was “about 2 times” and the MIN6 cell viability ([1]; concentration higher than 50 ng/ml, FIG. 2B) was “began to slightly decrease”. The MIN6 cell viability ([1]; lower concentrations, especially 6.25~25 ng/ml, compared with only-TG control, FIG. 2B) was “significantly increase the MIN6 cell viability”.
For `COC1=C(OC)[C@H](O)[C@H](C/C=C(\C)CC/C=C(\C)C/C=C/C(C)(C)O)[C@@H](C)C1=O` [Antrocamol LT3, (4R,5R,6R)-4-hydroxy-5-[(2E,6E,9E)-11-hydroxy-3,7,11-trimethyldodeca-2,6,9-trienyl]-2,3-dimethoxy-6-methylcyclohex-2-enone], the “effect for promoting insulin secretion” value (MIN6 cell; high glucose, FIG. 3B) was “observed in high glucose”, the “effect for promoting insulin secretion” value (MIN6 cell; low glucose, FIG. 3B) was “not low glucose” and the insulin secretion (MIN6 cell; pretreated with 250 ng/ml, 5.5 mM/16.7 mM glucose, FIG. 3B) was “slightly tendency for promoting insulin secretion”. The MIN6 cell viability ([1]; concentration of 1000 ng/ml, FIG. 2C) was “began increasing” and the MIN6 cell viability ([1]; concentrations lower than 500 ng/ml, compared with only-TG group, FIG. 2C) was “did not significantly influence the MIN6 cell viability”.
